System: vancomycin resistant E.faecium (VRE)
Assay: In vitro proliferation inhibition of E. faecium (OD600)
Assay type: cell-based
Conditions: pH 7.5; 10 µg/mL V-161, 1 µg/mL niclosamide, alone or in combination; NaTY medium, 37°C, 13 hours; OD600 (Fig. 2)

SMILES | proliferation of bacteria
Cc1ccc2[nH]c(-c3ccc(N(C)C)cc3)nc2c1 [Example V-161, N,N-dimethyl-4-(5-methyl-1H-benzo[d]imidazol-2-yl)aniline] | not completely inhibited
O=C(Nc1ccc([N+](=O)[O-])cc1Cl)c1cc(Cl)ccc1O [niclosamide, 5-chloro-2-hydroxy-N-(2-chloro-4-nitrophenyl)benzamide] | not completely inhibited
